{"source": "paper PMC11785709", "about": "“Angelica gigas Nakai (Korean Dang-gui) Root Alcoholic Extracts in Health Promotion and Disease Therapy – active Phytochemicals and In Vivo Molecular Targets” (Pharmaceutical Research, 2025)", "key": {"CAMKK1": {"biological_target": "T1, CAMKK1 (Homo sapiens, UniProt Q8N5S9)", "T1 construct": "purchased Reaction Biology (Malvern, PA)", "T1 sequence (Q8N5S9 whole entry)": "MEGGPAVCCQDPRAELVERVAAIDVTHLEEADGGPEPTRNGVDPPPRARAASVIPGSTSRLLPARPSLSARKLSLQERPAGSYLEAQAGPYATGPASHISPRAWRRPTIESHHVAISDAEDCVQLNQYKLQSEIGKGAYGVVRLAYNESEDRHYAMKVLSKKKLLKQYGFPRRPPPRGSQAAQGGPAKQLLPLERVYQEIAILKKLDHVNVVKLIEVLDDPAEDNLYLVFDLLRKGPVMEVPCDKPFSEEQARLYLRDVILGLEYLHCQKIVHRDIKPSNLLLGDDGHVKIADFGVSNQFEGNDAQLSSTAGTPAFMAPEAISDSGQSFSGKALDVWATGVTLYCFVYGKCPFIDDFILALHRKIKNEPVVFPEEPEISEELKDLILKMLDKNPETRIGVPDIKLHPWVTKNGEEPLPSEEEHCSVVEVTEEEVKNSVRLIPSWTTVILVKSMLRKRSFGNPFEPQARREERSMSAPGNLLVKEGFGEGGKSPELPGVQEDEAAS", "experiment": "Reaction Biology kinase activity inhibition", "type": "biochemical", "conditions": "for IC50: validation titration, 6.25 to 100 µM, Hotspot confirmation", "from_the_text": "(§1) The second screening was the Reaction Biology® (Malvern, PA) kinase activity inhibition tests, which screened for more than 600 protein kinases and lipid kinases, using miniaturized radioisotope-based assay platform with γ-^33P-ATP, followed by confirmation with IC50 kinase profiling service with 5 concentrations of test compound (i.e., DOH and DA) with curve fitting."}, "[1]": {"parameters": "method as in PMID 27080944, PMID 23364885, PMID 29121805", "conditions": "oral gavage dosing of AGN or D/DA; cited from earlier work"}, "CDK9": {"biological_target": "CDK9 (Homo sapiens, UniProt P50750)", "sequence (P50750 whole entry)": "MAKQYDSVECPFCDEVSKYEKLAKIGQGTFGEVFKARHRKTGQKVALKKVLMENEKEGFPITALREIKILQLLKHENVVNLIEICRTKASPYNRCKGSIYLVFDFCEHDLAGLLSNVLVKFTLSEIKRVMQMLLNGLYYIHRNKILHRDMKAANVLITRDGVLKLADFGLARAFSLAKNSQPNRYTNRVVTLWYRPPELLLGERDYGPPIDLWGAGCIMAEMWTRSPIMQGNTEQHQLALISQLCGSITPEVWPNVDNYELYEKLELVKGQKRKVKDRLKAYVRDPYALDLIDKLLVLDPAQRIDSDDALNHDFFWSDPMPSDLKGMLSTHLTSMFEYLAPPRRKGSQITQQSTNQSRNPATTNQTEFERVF", "sequence (O60563 whole entry partner)": "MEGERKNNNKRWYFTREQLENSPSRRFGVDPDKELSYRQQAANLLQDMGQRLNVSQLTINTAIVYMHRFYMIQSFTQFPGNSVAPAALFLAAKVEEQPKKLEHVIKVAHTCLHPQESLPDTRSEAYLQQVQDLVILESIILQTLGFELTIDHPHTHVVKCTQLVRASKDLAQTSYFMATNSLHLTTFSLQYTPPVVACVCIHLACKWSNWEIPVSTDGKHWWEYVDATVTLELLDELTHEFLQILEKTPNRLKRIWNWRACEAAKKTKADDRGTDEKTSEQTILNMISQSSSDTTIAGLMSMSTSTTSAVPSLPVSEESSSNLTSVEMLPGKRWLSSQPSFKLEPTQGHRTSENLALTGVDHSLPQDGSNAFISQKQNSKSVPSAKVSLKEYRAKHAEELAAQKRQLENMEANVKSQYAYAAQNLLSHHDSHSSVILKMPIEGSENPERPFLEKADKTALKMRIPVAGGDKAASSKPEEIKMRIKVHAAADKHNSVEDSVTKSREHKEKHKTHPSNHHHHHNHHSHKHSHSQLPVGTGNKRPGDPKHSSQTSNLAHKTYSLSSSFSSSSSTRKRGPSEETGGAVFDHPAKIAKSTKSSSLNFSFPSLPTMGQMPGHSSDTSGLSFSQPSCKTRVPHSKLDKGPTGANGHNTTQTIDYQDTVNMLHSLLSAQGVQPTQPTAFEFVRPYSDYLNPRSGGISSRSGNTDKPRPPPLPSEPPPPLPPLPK", "experiment": "Reaction Biology kinase activity inhibition", "type": "biochemical", "parameters": "purchased Reaction Biology (Malvern, PA)", "conditions": "activity screening, DOH at 50 μM", "from_the_text": "as §1"}, "[2]": {"system": "acute thermal pain models and CINP", "parameters": "method as in PMID 36249788", "conditions": "cited from earlier work"}, "BIKE (BMP2K)": {"biological_target": "T2, BIKE (BMP2K) (Homo sapiens, UniProt Q9NSY1)", "T2 construct": "purchased Eurofins DiscoverX (KINOMEscan)", "experiment": "KINOMEscan competition binding", "conditions": "initial screening, DOH 50 µM; read-out: Substrate bound % Control", "experimental": "(§2) Two distinct platforms were used for initial screening with 50 µM DOH vs. DMSO vehicle. The first was the Eurofins DiscoverX KINOMEscan® (Freemont, CA USA) profiling platform, which employed a proprietary active site-directed competition binding assay to quantitatively measure interactions between a test compound (i.e., DOH) and 468 human protein kinases and disease relevant mutant variants either directly (sterically) or indirectly (allosterically) to prevent a kinase binding to its immobilized substrate (ligand). The top 8 hits were subjected to secondary screening verification by DOH concentration-titration for dissociation constant (Kd). For ROCK1 and ROCK2, DA was chosen for Kd titration as well, because it is ~ 10 × higher than D in peripheral circulation due to its resistance to hydrolysis by carboxyesterase-2 (Fig. 1C)."}, "[3]": {"biological_target": "T3, JAK3(JH1domain-catalytic) (Homo sapiens, UniProt P52333)", "T3 construct": "JAK3(JH1domain-catalytic); purchased Eurofins DiscoverX (KINOMEscan)", "experiment": "KINOMEscan competition binding", "conditions": "initial screening, DOH 50 µM; read-out: Substrate bound % Control", "experimental": "as §2"}, "ERK4 (MAPK4)": {"biological_target": "T4, ERK4 (MAPK4) (Homo sapiens, UniProt P31152)", "T4 construct": "purchased Eurofins DiscoverX (KINOMEscan)", "T4 sequence (P31152 whole entry)": "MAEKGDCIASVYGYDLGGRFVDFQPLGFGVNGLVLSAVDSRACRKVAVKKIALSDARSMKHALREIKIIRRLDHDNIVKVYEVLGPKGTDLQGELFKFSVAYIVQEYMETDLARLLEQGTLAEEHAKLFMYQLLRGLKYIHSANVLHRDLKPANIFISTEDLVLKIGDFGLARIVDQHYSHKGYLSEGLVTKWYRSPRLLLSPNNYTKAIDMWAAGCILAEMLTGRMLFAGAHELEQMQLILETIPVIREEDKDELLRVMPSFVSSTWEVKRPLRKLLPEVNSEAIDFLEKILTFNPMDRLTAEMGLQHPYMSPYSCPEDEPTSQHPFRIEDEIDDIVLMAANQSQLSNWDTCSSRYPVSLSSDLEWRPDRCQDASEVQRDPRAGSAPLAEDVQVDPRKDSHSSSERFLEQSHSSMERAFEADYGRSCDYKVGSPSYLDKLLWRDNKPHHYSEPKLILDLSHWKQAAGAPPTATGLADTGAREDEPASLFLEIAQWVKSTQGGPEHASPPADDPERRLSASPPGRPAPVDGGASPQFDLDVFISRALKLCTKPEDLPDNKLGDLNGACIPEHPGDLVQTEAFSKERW", "experiment": "KINOMEscan competition binding", "experimental": "as §2"}, "YSK4 (MAP3K19)": {"biological_target": "T5, YSK4 (MAP3K19) (Homo sapiens, UniProt Q56UN5)", "T5 construct": "purchased Eurofins DiscoverX (KINOMEscan)", "experiment": "KINOMEscan competition binding", "conditions": "initial screening, DOH 50 µM; read-out: Substrate bound % Control", "experimental": "as §2"}, "DYRK1B": {"biological_target": "T6, DYRK1B (Homo sapiens, UniProt Q9Y463)", "T6 construct": "purchased Eurofins DiscoverX (KINOMEscan)", "experiment": "KINOMEscan competition binding", "conditions": "initial screening, DOH 50 µM; read-out: Substrate bound % Control", "experimental": "as §2"}, "PIK3C2G": {"biological_target": "T7, PIK3C2G (Homo sapiens, UniProt O75747)", "T7 construct": "purchased Eurofins DiscoverX (KINOMEscan)", "experiment": "KINOMEscan competition binding", "conditions": "initial screening, DOH 50 µM; read-out: Substrate bound % Control", "experimental": "as §2"}, "PIK3CG": {"biological_target": "T8, PIK3CG (Homo sapiens, UniProt P48736)", "T8 construct": "purchased Eurofins DiscoverX (KINOMEscan)", "experiment": "KINOMEscan competition binding", "conditions": "initial screening, DOH 50 µM; read-out: Substrate bound % Control", "experimental": "as §2"}, "SRPK3": {"biological_target": "T9, SRPK3 (Homo sapiens, UniProt Q9UPE1)", "T9 construct": "purchased Eurofins DiscoverX (KINOMEscan)", "T9 sequence (Q9UPE1 whole entry)": "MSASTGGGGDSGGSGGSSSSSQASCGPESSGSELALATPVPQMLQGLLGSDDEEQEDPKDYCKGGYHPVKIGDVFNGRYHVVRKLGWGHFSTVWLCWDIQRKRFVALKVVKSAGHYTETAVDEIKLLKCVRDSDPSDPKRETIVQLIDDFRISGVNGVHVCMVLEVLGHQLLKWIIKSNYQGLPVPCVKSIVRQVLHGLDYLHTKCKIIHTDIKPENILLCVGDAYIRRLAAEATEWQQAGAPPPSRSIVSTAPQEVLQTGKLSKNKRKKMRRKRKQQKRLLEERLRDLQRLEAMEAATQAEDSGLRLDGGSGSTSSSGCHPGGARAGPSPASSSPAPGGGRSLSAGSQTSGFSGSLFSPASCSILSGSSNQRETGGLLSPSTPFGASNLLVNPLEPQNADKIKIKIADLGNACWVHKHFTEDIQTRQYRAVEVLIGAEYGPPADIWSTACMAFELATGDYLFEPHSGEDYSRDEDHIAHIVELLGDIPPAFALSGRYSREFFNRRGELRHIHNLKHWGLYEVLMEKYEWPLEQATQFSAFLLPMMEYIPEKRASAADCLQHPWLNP", "experiment": "KINOMEscan competition binding", "conditions": "initial screening, DOH 50 µM; read-out: Substrate bound % Control", "experimental": "as §2"}, "[4]": {"biological_target": "T10, JAK2(JH1domain-catalytic) (Homo sapiens, UniProt O60674)", "T10 construct": "JAK2(JH1domain-catalytic); purchased Eurofins DiscoverX (KINOMEscan)", "T10 sequence (O60674 849-1124 limits assumed)": "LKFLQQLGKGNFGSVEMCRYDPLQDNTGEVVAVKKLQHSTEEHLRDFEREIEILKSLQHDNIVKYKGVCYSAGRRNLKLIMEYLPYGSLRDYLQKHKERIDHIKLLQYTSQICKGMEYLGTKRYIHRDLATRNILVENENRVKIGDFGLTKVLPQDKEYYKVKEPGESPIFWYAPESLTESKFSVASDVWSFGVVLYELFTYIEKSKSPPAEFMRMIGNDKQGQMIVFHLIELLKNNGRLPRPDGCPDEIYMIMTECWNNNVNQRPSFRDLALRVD", "experiment": "KINOMEscan competition binding", "conditions": "initial screening, DOH 50 µM; read-out: Substrate bound % Control", "experimental": "as §2"}, "RIOK1": {"biological_target": "T11, RIOK1 (Homo sapiens, UniProt Q9BRS2)", "T11 construct": "purchased Eurofins DiscoverX (KINOMEscan)", "experiment": "KINOMEscan competition binding", "conditions": "initial screening, DOH 50 µM; read-out: Substrate bound % Control", "experimental": "as §2"}, "PIP5K1A": {"biological_target": "T12, PIP5K1A (Homo sapiens, UniProt Q99755)", "T12 construct": "purchased Eurofins DiscoverX (KINOMEscan)", "T12 sequence (Q99755 whole entry)": "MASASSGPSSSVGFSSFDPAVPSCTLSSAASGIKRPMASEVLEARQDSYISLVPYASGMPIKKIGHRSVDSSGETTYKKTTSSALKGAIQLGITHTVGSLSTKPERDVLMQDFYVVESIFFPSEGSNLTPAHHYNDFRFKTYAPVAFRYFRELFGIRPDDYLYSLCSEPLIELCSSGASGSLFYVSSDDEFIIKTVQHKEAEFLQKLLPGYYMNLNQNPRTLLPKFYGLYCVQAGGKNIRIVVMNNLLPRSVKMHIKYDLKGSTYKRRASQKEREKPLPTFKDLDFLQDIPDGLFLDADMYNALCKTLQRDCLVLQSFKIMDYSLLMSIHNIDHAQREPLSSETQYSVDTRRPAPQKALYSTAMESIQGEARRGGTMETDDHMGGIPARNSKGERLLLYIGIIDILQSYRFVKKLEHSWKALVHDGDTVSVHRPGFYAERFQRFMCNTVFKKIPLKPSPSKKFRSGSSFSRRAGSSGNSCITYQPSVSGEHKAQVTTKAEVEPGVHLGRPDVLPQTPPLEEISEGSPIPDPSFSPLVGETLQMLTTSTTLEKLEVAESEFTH", "experiment": "KINOMEscan competition binding", "conditions": "initial screening, DOH 50 µM; read-out: Substrate bound % Control", "experimental": "as §2"}, "LKB1 (STK11)": {"biological_target": "T13, LKB1 (STK11) (Homo sapiens, UniProt Q15831)", "T13 construct": "purchased Eurofins DiscoverX (KINOMEscan)", "T13 sequence (Q15831 whole entry)": "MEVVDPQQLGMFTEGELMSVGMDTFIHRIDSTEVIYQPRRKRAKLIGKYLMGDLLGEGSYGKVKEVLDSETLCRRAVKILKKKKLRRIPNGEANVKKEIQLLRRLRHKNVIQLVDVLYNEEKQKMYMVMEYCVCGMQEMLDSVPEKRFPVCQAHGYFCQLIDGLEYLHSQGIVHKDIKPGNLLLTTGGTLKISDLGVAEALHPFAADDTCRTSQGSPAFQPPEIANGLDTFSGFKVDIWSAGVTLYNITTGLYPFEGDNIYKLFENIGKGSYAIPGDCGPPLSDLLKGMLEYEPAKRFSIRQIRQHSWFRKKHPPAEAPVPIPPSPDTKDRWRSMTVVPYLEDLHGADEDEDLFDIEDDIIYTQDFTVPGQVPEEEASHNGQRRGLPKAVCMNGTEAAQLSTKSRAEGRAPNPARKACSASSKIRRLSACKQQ", "experiment": "KINOMEscan competition binding", "experimental": "as §2"}, "CDC2L1 (CDK11B)": {"biological_target": "T14, CDC2L1 (CDK11B) (Homo sapiens, UniProt P21127)", "T14 construct": "purchased Eurofins DiscoverX (KINOMEscan)", "T14 sequence (P21127 whole entry)": "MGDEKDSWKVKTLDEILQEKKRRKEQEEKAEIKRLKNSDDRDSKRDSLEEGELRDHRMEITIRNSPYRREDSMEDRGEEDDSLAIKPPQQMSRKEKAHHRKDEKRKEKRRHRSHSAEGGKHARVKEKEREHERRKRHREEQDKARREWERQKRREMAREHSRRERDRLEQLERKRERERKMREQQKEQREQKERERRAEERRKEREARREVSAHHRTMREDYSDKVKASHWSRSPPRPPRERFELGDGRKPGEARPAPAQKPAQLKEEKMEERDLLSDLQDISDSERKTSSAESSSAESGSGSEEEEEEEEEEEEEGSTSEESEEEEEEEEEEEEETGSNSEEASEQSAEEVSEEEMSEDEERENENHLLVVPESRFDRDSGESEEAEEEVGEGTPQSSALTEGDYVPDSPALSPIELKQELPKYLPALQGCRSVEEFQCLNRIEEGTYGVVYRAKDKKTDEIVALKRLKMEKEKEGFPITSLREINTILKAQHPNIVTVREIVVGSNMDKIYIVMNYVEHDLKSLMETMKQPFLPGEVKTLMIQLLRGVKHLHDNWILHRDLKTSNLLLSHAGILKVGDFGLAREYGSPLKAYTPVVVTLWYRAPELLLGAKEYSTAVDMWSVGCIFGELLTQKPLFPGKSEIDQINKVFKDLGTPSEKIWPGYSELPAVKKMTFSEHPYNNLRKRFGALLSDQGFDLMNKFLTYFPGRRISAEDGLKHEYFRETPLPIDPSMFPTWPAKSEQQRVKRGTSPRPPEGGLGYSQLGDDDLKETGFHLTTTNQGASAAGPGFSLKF", "experiment": "KINOMEscan competition binding", "experimental": "as §2"}, "GRK4": {"biological_target": "T15, GRK4 (Homo sapiens, UniProt P32298)", "T15 construct": "purchased Eurofins DiscoverX (KINOMEscan)", "experiment": "KINOMEscan competition binding", "conditions": "initial screening, DOH 50 µM; read-out: Substrate bound % Control", "experimental": "as §2"}, "CLP microbial exposure": {"system": "CLP microbial exposure", "conditions": "ip twice at 2 h and 4 h after CLP; cited from earlier work"}, "acute pain models": {"system": "acute pain models", "parameters": "method as in PMID 12759141", "conditions": "cited from earlier work"}, "[5]": {"conditions": "cited from earlier work"}, "[6]": {"system": "serotonin (5-hydroxytryptamine) level", "parameters": "method as in PMID 19801740", "conditions": "DOH gavage, highest at 10 mg DOH/kg in frontal cortex and striatum; cited from earlier work"}, "[7]": {"system": "rat hypothalamic primary neuronal cells", "parameters": "method as in PMID 28066138", "conditions": "cited from earlier work"}, "CYP2C19 and 3A4": {"system": "CYP2C19 and 3A4", "conditions": "cited from earlier work"}, "[8]": {"system": "methicillin-resistant Staphylococcus aureus (MRSA) sepsis", "parameters": "method as in PMID 34681611", "conditions": "ip every other day 0.4, 2 and 10 mg/kg pre-treatment; cited from earlier work"}, "[9]": {"system": "pentobarbital-induced sleeping behaviors", "parameters": "method as in PMID 28066138", "conditions": "cited from earlier work"}, "sleep architectures": {"system": "sleep architectures", "parameters": "method as in PMID 28066138", "conditions": "DA 50 mg/kg, po; cited from earlier work"}, "[10]": {"system": "adipose stem cells (ASCs)", "parameters": "method as in PMID 31861646", "conditions": "cited from earlier work"}, "[11]": {"conditions": "read-out: Substrate bound % Control"}, "[12]": {"conditions": "validation Kd titration, 0.003 to 50 µM"}}, "data": [{"smiles": "CC1(C)Oc2cc3oc(=O)ccc3cc2C[C@@H]1O", "note": "[DOH, decursinol]", "values": [{"measurement": "inhibition at 50 µM", "setting": "CAMKK1; initial screening, DOH 50 µM", "result": 40.3, "unit": "%"}, {"measurement": "% Enzyme Activity (relative to DMSO controls)", "setting": "CAMKK1; initial screening, DOH (50 µM), Data 1 and Data 2", "result": 59.3, "unit": "%"}, {"measurement": "remaining activity at 50 µM", "setting": "CAMKK1; initial screening, DOH (50 µM), Data 1 and Data 2, read-out: % Enzyme Activity (relative to DMSO controls)", "result": 60.1, "unit": "%"}, {"measurement": "IC50", "setting": "CAMKK1", "result": "> 100", "unit": "µM"}, {"measurement": "DOH level achievable in the blood", "setting": "[1]", "result": "double digit micromolar"}, {"measurement": "inhibition of kinase activity", "setting": "CDK9", "result": "no inhibition"}, {"measurement": "hypothermia and sedation (ataxia)", "setting": "[2]", "result": "dose dependent hypothermia"}, {"measurement": "antinociception in hot plate and tail-flick assays", "setting": "[2]; ip DOH 50 mg/kg", "result": "replicated antinociception effects"}, {"measurement": "mechanical allodynia of mice with cisplatin-neuropathy (Von Fry test)", "setting": "[2]; ip DOH 50 mg/kg", "result": "reversed the mechanical allodynia"}, {"measurement": "time to tolerance development", "setting": "[2]; once-daily ip, hot plate, tail-flick and CINP mice", "result": "~ 10 days"}, {"measurement": "remaining binding at 50 µM", "setting": "BIKE (BMP2K)", "result": 45, "unit": "%"}, {"measurement": "remaining binding at 50 µM", "setting": "[3]", "result": 45, "unit": "%"}, {"measurement": "remaining binding at 50 µM", "setting": "ERK4 (MAPK4); [11]", "result": 3.3, "unit": "%"}, {"measurement": "Kd", "setting": "ERK4 (MAPK4); [12]", "result": "> 50", "unit": "µM"}, {"measurement": "remaining binding at 50 µM", "setting": "YSK4 (MAP3K19)", "result": 34, "unit": "%"}, {"measurement": "remaining binding at 50 µM", "setting": "DYRK1B", "result": 28, "unit": "%"}, {"measurement": "remaining binding at 50 µM", "setting": "PIK3C2G", "result": 32, "unit": "%"}, {"measurement": "remaining binding at 50 µM", "setting": "PIK3CG", "result": 46, "unit": "%"}, {"measurement": "remaining binding at 50 µM", "setting": "SRPK3", "result": 45, "unit": "%"}, {"measurement": "remaining binding at 50 µM", "setting": "[4]", "result": 49, "unit": "%"}, {"measurement": "remaining binding at 50 µM", "setting": "RIOK1", "result": 50, "unit": "%"}, {"measurement": "remaining binding at 50 µM", "setting": "PIP5K1A", "result": 47, "unit": "%"}, {"measurement": "remaining binding at 50 µM", "setting": "LKB1 (STK11); [11]", "result": 7.6, "unit": "%"}, {"measurement": "Kd", "setting": "LKB1 (STK11); [12]", "result": "> 50", "unit": "µM"}, {"measurement": "remaining binding at 50 µM", "setting": "CDC2L1 (CDK11B); [11]", "result": 19, "unit": "%"}, {"measurement": "Kd", "setting": "CDC2L1 (CDK11B); [12]", "result": "> 50", "unit": "µM"}, {"measurement": "remaining binding at 50 µM", "setting": "GRK4", "result": 47, "unit": "%"}, {"measurement": "dose giving plateau of therapeutic benefit", "setting": "CLP microbial exposure", "result": "≥ 10", "unit": "mg/kg"}, {"measurement": "anti-nociceptive ED50", "setting": "acute pain models; gavaged DOH 5 to 200 mg/kg", "result": "~ 50 mg/kg"}, {"measurement": "peak time of anti-nociceptive efficacy", "setting": "acute pain models; post dose", "result": 30, "unit": "min"}, {"measurement": "AUCDOH/AUCtotal", "setting": "[5]; conversion of D and DA to DOH", "result": 98.7, "unit": "%"}, {"measurement": "Cmax", "setting": "[5]; read-out: mean peak concentration Cmax, 10 men and 10 women, 800 mg INM176 AGN oral", "result": 2480, "unit": "nM"}, {"measurement": "serotonin (5-hydroxytryptamine) level in brain", "setting": "[6]", "result": "increase"}]}, {"smiles": "C/C=C(/C)C(=O)O[C@H]1Cc2cc3ccc(=O)oc3cc2OC1(C)C", "note": "[DA, decursinol angelate]", "values": [{"measurement": "IC50", "setting": "CAMKK1", "result": "> 100", "unit": "µM"}, {"measurement": "intracellular Cl- influx level", "setting": "[7]; DA 0.001, 0.01 and 0.1 µg/ml ≈ 0.003, 0.03 and 0.3 µM", "result": "increased"}, {"measurement": "protein expression of GAD65/67 and GABAA receptor subtypes", "setting": "[7]", "result": "increased the protein expression"}, {"measurement": "Cyp isoforms for metabolism to DOH", "setting": "CYP2C19 and 3A4", "result": "major human isoforms"}, {"measurement": "mouse mortality and bacteremia", "setting": "[8]", "result": "dose-dependent decrease of mouse mortality"}, {"measurement": "sleeping time by pentobarbital (42 mg/kg)", "setting": "[9]; dose-dependent", "result": "prolonged sleeping time"}, {"measurement": "spontaneous locomotor activity", "setting": "[9]; oral DA 10, 25 and 50 mg/kg", "result": "markedly suppressed spontaneous locomotor activity"}, {"measurement": "total sleep time (EEG)", "setting": "sleep architectures", "result": "increased total sleep time"}, {"measurement": "adipocyte differentiation", "setting": "[10]", "result": "significantly inhibited adipocyte differentiation"}]}]}
